In patent US10280166B2, “2-(1H-indazol-3-yl)-3H-imidazo[4,5-B]pyridine and therapeutic uses thereof” (Samumed, LLC, priority 2014, dated 2019):

How the values were obtained:
[1] = system: Wnt activity (SW480 colon carcinoma cells stably expressing the Sp5-Luc reporter gene); assay: Sp5-Luc reporter gene screening assay for Wnt activity in SW480 cells; assay type: cell-based; conditions: Homo sapiens, 42 h incubation, luminescence
Method in brief: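 SW480 cells stably carrying an Sp5 promoter (eight TCF/LEF sites)-luciferase reporter were plated overnight in 10% FCS medium. BrightGlo luminescence was normalised to DMSO wells, and IC50 was obtained by four-parameter fit.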

[2] = system: primary human fibroblasts derived from IPF patients (LL29 cells); assay: Inhibition of fibrosis (αSMA) in TGF-β1 treated primary human fibroblasts from IPF patients; assay type: cell-based; conditions: Fibroblast, 96 h, TGF-β1 20 ng/mL, 4 days, % αSMA positive cells
Text: The above synthesized compounds were screened using primary human fibroblasts (derived from IPF patients) treated with TGF-β1 to determine their ability to inhibit the fibrotic process.
Primary human fibroblasts derived from IPF patients (LL29 cells) [^1Xiaoqiu Liu, et.al., “Fibrotic Lung Fibroblasts Show Blunted Inhibition by cAMP Due to Deficient cAMP Response Element-Binding Protein Phosphorylation”, Journal of Pharmacology and Experimental Therapeutics (2005), 315(2), 678-687; ^2Watts, K. L., et.al., “RhoA signaling modulates cyclin D1 expression in human lung fibroblasts; implications for idiopathic pulmonary fibrosis”, Respiratory Research (2006), 7(1), 88] were obtained from American Type Culture Collection (ATCC) and expanded in F12 medium supplemented with 15% Fetal Bovine Serum and Penicillin/Streptomycin.
Each compound was dissolved in DMSO as a 10 mM stock and used to prepare compound source plates. Serial dilution (1:2, 11-point dose-response curves from 10 μM to 1.87 nM) and compound transfer was performed using the ECHO 550 (Labcyte, Sunnyvale, Calif.) into 384-well clear bottom assay plates (Greiner Bio-One) with appropriate DMSO backfill for a final DMSO concentration of 0.1%. LL29 cells were plated at 1,500 cells/well in 80 μl/well F12 medium supplemented with 1% Fetal Bovine Serum. One hour after addition of the cells, TGF-β1 (Peprotech; 20 ng/mL) was added to the plates to induce fibrosis (ref. 1 and 2 above). Wells treated with TGF-β1 and containing DMSO were used as controls. Cells were incubated at 37° C. and 5% CO2 for 4 days. Following incubation for 4 days, SYTOX green nucleic acid stain (Life Technologies [Thermo Fisher Scientific]) was added to the wells at a final concentration of 1 uM and incubated at room temperature for 30 min. Cells were then fixed using 4% formaldehyde (Electron Microscopy Sciences), washed 3 times with PBS followed by blocking and permeabilization using 3% Bovine Serum Albumin (BSA; Sigma) and 0.3% Triton X-100 (Sigma) in PBS. Cells were then stained with antibody specific to α-smooth muscle actin (αSMA; Abcam) (ref. 1 and 2 above) in 3% Bovine Serum Albumin (BSA; Sigma) and 0.3% Triton X-100 (Sigma) in PBS, and incubated overnight at 4° C. Cells were then washed 3 times with PBS, followed by incubation with Alexa Flor-647 conjugated secondary antibody (Life Technologies [Thermo Fisher Scientific]) and DAPI at room temperature for 1 hour. Cells were then washed 3 times with PBS and plates were sealed for imaging. αSMA staining was imaged by excitation at 630 nm and emission at 665 nm and quantified using the Compartmental Analysis program on the CellInsight CX5 (Thermo Scientific). Dead or apoptotic cells were excluded from analysis based on positive SYTOX green staining. % of total cells positive for αSMA were counted in each well and normalized to the average of 11 wells treated with TGF-β1 on the same plate using Dotmatics' Studies Software. The normalized averages (fold change over untreated) of 3 replicate wells for each compound concentration were used to create dose-responses curves and EC50 values were calculated using non-linear regression curve fit in the Dotmatics' Studies Software. The EC50 values are reported.

| SMILES | IC50 [1] [nM] | EC50 [2] [nM] |
| --- | --- | --- |
| CCC(=O)Nc1cncc(-c2ccc3[nH]nc(-c4nc5c(N6CCCCC6)ccnc5[nH]4)c3c2)c1 [Compound 157, N-(5-(3-(7-(Piperidin-1-yl)-3H-imidazo[4,5-b]pyridin-2-yl)-1H-indazol-5-yl)pyridin-3-yl)propionamide] | 15 | 0.605 |
| CN(C)c1cncc(-c2ccc3[nH]nc(-c4nc5c(N6CCCCC6)ccnc5[nH]4)c3c2)c1 [Compound 163, N,N-Dimethyl-5-(3-(7-(piperidin-1-yl)-3H-imidazo[4,5-b]pyridin-2-yl)-1H-indazol-5-yl)pyridin-3-amine] | 122 | 0.009 |
| CN(C)Cc1cncc(-c2ccc3[nH]nc(-c4nc5c(N6CCCCC6)ccnc5[nH]4)c3c2)c1 [Compound 169, N,N-Dimethyl-1-(5-(3-(7-(piperidin-1-yl)-3H-imidazo[4,5-b]pyridin-2-yl)-1H-indazol-5-yl)pyridin-3-yl)methanamine] | 1450 | 0.396 |
| O=C(Nc1cncc(-c2ccc3[nH]nc(-c4nc5c(N6CCCCC6)ccnc5[nH]4)c3c2)c1)C1CC1 [Compound 175, N-(5-(3-(7-(Piperidin-1-yl)-3H-imidazo[4,5-b]pyridin-2-yl)-1H-indazol-5-yl)pyridin-3-yl)cyclopropanecarboxamide] | 99.3 | 9.99 |
| FC1(F)CCN(Cc2cncc(-c3ccc4[nH]nc(-c5nc6c(N7CCCCC7)ccnc6[nH]5)c4c3)c2)C1 [Compound 181, 2-(5-(5-((3,3-Difluoropyrrolidin-1-yl)methyl)pyridin-3-yl)-1H-indazol-3-yl)-7-(piperidin-1-yl)-3H-imidazo[4,5-b]pyridine] | 2580 | 0.009 |
| Cc1cn(-c2ccnc3[nH]c(-c4n[nH]c5ccc(-c6cncc(NC(=O)C(C)(C)C)c6)cc45)nc23)cn1 [Compound 190, N-(5-(3-(7-(4-Methyl-1H-imidazol-1-yl)-3H-imidazo[4,5-b]pyridin-2-yl)-1H-indazol-5-yl)pyridin-3-yl)pivalamide] | 7.4 | 0.009 |
| Cc1cn(-c2ccnc3[nH]c(-c4n[nH]c5ccc(-c6cncc(NC(=O)C7CCC7)c6)cc45)nc23)cn1 [Compound 202, N-(5-(3-(7-(4-Methyl-1H-imidazol-1-yl)-3H-imidazo[4,5-b]pyridin-2-yl)-1H-indazol-5-yl)pyridin-3-yl)cyclobutanecarboxamide] | 4.7 | 0.018 |
| CC(C)C(=O)Nc1cncc(-c2ccc3[nH]nc(-c4nc5c(N6CCN(C)CC6)ccnc5[nH]4)c3c2)c1 [Compound 217, N-(5-(3-(7-(4-Methylpiperazin-1-yl)-3H-imidazo[4,5-b]pyridin-2-yl)-1H-indazol-5-yl)pyridin-3-yl)isobutyramide] | 173 | 2.83 |
| CN1CCN(c2ccnc3[nH]c(-c4n[nH]c5ccc(-c6cncc(CN7CCCCC7)c6)cc45)nc23)CC1 [Compound 223, 7-(4-Methylpiperazin-1-yl)-2-(5-(5-(piperidin-1-ylmethyl)pyridin-3-yl)-1H-indazol-3-yl)-3H-imidazo[4,5-b]pyridine] | 3070 | 0.009 |
| CN1CCN(c2ccnc3[nH]c(-c4n[nH]c5ccc(-c6cncc(NC(=O)C7CCCC7)c6)cc45)nc23)CC1 [Compound 229, N-(5-(3-(7-(4-Methylpiperazin-1-yl)-3H-imidazo[4,5-b]pyridin-2-yl)-1H-indazol-5-yl)pyridin-3-yl)cyclopentanecarboxamide] | 284 | 1.07 |
| CN1CCN(c2ccnc3[nH]c(-c4n[nH]c5ccc(-c6cncnc6)cc45)nc23)CC1 [Compound 234, 7-(4-Methylpiperazin-1-yl)-2-(5-(pyrimidin-5-yl)-1H-indazol-3-yl)-3H-imidazo[4,5-b]pyridine] | 795 | 0.434 |
| c1cncc(-c2ccc3[nH]nc(-c4nc5cccnc5[nH]4)c3c2)c1 [Compound 238, 2-(5-(Pyridin-3-yl)-1H-indazol-3-yl)-3H-imidazo[4,5-b]pyridine] | 28.8 | 0.013 |
| Cc1ccncc1-c1ccc2[nH]nc(-c3nc4cccnc4[nH]3)c2c1 [Compound 239, 2-(5-(4-Methylpyridin-3-yl)-1H-indazol-3-yl)-3H-imidazo[4,5-b]pyridine] | 4100 | 0.171 |
| CN(C)Cc1cncc(-c2ccc3[nH]nc(-c4nc5cccnc5[nH]4)c3c2)c1 [Compound 247, 1-(5-(3-(3H-Imidazo[4,5-b]pyridin-2-yl)-1H-indazol-5-yl)pyridin-3-yl)-N,N-dimethylmethanamine] | 77 | 0.184 |
| CC(C)(C)CC(=O)Nc1cncc(-c2ccc3[nH]nc(-c4nc5cccnc5[nH]4)c3c2)c1 [Compound 250, N-(5-(3-(3H-Imidazo[4,5-b]pyridin-2-yl)-1H-indazol-5-yl)pyridin-3-yl)-3,3-dimethylbutanamide] | 124 | 2.6 |
| O=C(Nc1cncc(-c2ccc3[nH]nc(-c4nc5cccnc5[nH]4)c3c2)c1)C1CCCCC1 [Compound 256, N-(5-(3-(3H-Imidazo[4,5-b]pyridin-2-yl)-1H-indazol-5-yl)pyridin-3-yl)cyclohexanecarboxamide] | 66.3 | 0.401 |
| Cc1ccncc1-c1ccc2[nH]nc(-c3nc4c(-c5ccsc5)ccnc4[nH]3)c2c1 [Compound 265, 2-(5-(4-Methylpyridin-3-yl)-1H-indazol-3-yl)-7-(thiophen-3-yl)-3H-imidazo[4,5-b]pyridine] | 9.4 | 0.131 |
| CC(C)C(=O)Nc1cncc(-c2ccc3[nH]nc(-c4nc5c(-c6ccsc6)ccnc5[nH]4)c3c2)c1 [Compound 269, N-(5-(3-(7-(Thiophen-3-yl)-3H-imidazo[4,5-b]pyridin-2-yl)-1H-indazol-5-yl)pyridin-3-yl)isobutyramide] | 5.1 | 9.99 |
| O=C(Cc1ccccc1)Nc1cncc(-c2ccc3[nH]nc(-c4nc5c(-c6ccsc6)ccnc5[nH]4)c3c2)c1 [Compound 270, 2-Phenyl-N-(5-(3-(7-(thiophen-3-yl)-3H-imidazo[4,5-b]pyridin-2-yl)-1H-indazol-5-yl)pyridin-3-yl)acetamide] | 16.3 | 0.01 |
| O=C(Nc1cncc(-c2ccc3[nH]nc(-c4nc5c(-c6ccsc6)ccnc5[nH]4)c3c2)c1)c1ccccc1 [Compound 271, N-(5-(3-(7-(Thiophen-3-yl)-3H-imidazo[4,5-b]pyridin-2-yl)-1H-indazol-5-yl)pyridin-3-yl)benzamide] | 8.4 | 0.068 |
| O=C(Nc1cncc(-c2ccc3[nH]nc(-c4nc5c(-c6ccsc6)ccnc5[nH]4)c3c2)c1)C1CC1 [Compound 279, N-(5-(3-(7-(Thiophen-3-yl)-3H-imidazo[4,5-b]pyridin-2-yl)-1H-indazol-5-yl)pyridin-3-yl)cyclopropanecarboxamide] | 5.2 | 0.306 |
| O=C(Nc1cncc(-c2ccc3[nH]nc(-c4nc5c(-c6ccsc6)ccnc5[nH]4)c3c2)c1)C1CCCC1 [Compound 281, N-(5-(3-(7-(Thiophen-3-yl)-3H-imidazo[4,5-b]pyridin-2-yl)-1H-indazol-5-yl)pyridin-3-yl)cyclopentanecarboxamide] | 9.8 | 0.359 |
| c1ccc(CNCc2cncc(-c3ccc4[nH]nc(-c5nc6c(-c7ccsc7)ccnc6[nH]5)c4c3)c2)cc1 [Compound 283, N-Benzyl-1-(5-(3-(7-(thiophen-3-yl)-3H-imidazo[4,5-b]pyridin-2-yl)-1H-indazol-5-yl)pyridin-3-yl)methanamine] | 137 | 0.605 |
| CCNCc1cncc(-c2ccc3[nH]nc(-c4nc5c(-c6ccoc6)ccnc5[nH]4)c3c2)c1 [Compound 292, N-((5-(3-(7-(Furan-3-yl)-3H-imidazo[4,5-b]pyridin-2-yl)-1H-indazol-5-yl)pyridin-3-yl)methyl)ethanamine] | 47.7 | 0.009 |
